In US9345247B2, “Azaindole carboxylic acid amides and azaindole thiocarboxylic acid amides for use as insecticides and acaricides” (BAYER CROPSCIENCE AG, priority 2012, dated 2016):
Like-named read-outs stand apart in the source and are kept apart here.

Columns and labels:
[1] = system: larvae of the mustard beetle (Phaedon cochleariae); assay: Phaedon cochleariae spray test (PHAECO); assay type: in vivo; settings: for efficacy / pest or weed control at 100 g/ha: spray, after 7 days; for pest or weed control at 100 g/ha: read-out: efficacy
Procedure: Phaedon cochleariae—Spray Test (PHAECO)
(§1) To produce a suitable preparation of active compound, 1 part by weight of active compound is mixed with the stated amounts of solvent and emulsifier, and the concentrate is diluted with emulsifier-containing water to the desired concentration.
Discs of Chinese cabbage leaves (Brassica pekinensis) are sprayed with an active compound formulation of the desired concentration and, after drying, populated with larvae of the mustard beetle (Phaedon cochleariae).
After 7 days, the efficacy in % is determined. 100% means that all the beetle larvae have been killed; 0% means that no beetle larvae have been killed.
After the stated period of time, the effect in % is determined 100% means that all the beetle larvae have been killed; 0% means that no beetle larvae have been killed.

[2] = system: greenhouse red spider mite (Tetranychus urticae); assay: Tetranychus urticae spray test, OP-resistant (TETRUR); assay type: in vivo; settings: for efficacy: 100 g/ha, spray, after 6 days
Procedure: (§2) To produce a suitable active compound formulation, 1 part by weight of active compound is mixed with the stated amounts of solvent and emulsifier, and the concentrate is diluted with emulsifier-containing water to the desired concentration.
Discs of bean leaves (Phaseolus vulgaris) infested by all stages of the greenhouse red spider mite (Tetranychus urticae) are sprayed with an active compound formulation of the desired concentration.
After 6 days, the efficacy in % is determined 100% means that all the spider mites have been killed; 0% means that none of the spider mites have been killed. […]

[3] = log P by HPLC on reversed-phase column (C18), EEC directive 79/831 Annex V.A8; assay type: physicochemical; settings: for chromatographic logP: reversed-phase HPLC column (C18)
Procedure: a) The determination of the W by LC-MS in the acidic range is effected at pH 2.7, acetonitrile (contains 0.1% formic acid) and water as eluents; linear gradient from 10% acetonitrile to 95% acetonitrile, instrument: Agilent 1100 LC-System, Agilent MSD System, HTS PAL. The log P values reported in the tables and Preparation Examples above were determined in accordance with EEC directive 79/831 Annex V.A8 by HPLC (High Performance Liquid Chromatography) using a reversed-phase column (C18). Temperature 43° C. The calibration is effected with unbranched alkan-2-ones (having 3 to 16 carbon atoms), for which the log P values are known.

[4] = system: caterpillars of the armyworm (Spodoptera frugiperda); assay: Spodoptera frugiperda spray test (SPODFR); assay type: in vivo; settings: for efficacy: spray, after 7 days
Procedure: Spodoptera frugiperda—Spray Test (SPODFR)
as §2
Leaf discs of maize (Zea mays) are sprayed with an active compound formulation of the desired concentration and, after drying, populated with caterpillars of the armyworm (Spodoptera frugiperda).
After 7 days, the efficacy in % is determined. 100% means that all the caterpillars have been killed; 0% means that no caterpillars have been killed.
as §1
Leaf discs of maize (Zea mays) are sprayed with an active compound preparation of the desired concentration and, after drying, populated with caterpillars of the armyworm (Spodoptera frugiperda).
After the stated period of time, the effect in % is determined. 100% means that all the caterpillars have been killed; 0% means that no caterpillars have been killed.

Boophilus microplus = Boophilus microplus test (BOOPMI injection); assay type: in vivo; settings: 20 μg/animal, after 7 days
Procedure: Boophilus microplus Test (BOOPMI Injection) [table] To produce a suitable active compound formulation, 10 mg of active compound are mixed with 0.5 ml of solvent and the concentrate is diluted with solvent to the desired concentration. The active compound solution is injected into the abdomen (Boophilus microplus), and the animals are transferred into dishes and stored in a climate-controlled room. After 7 days, the efficacy in % is determined. The activity is assessed by laying of fertile eggs. 100% means that none of the ticks has laid any fertile eggs.

Lucilia cuprina larvae = assay: Lucilia cuprina test (LUCICU); assay type: in vivo; settings: 100 ppm, after 2 days
Procedure: (§3) Lucilia cuprina Test (LUCICU) [table] To produce a suitable active compound formulation, 10 mg of active compound are mixed with 0.5 ml of dimethyl sulfoxide, and the concentrate is diluted with water to the desired concentration. Vessels containing horse meat treated with the active compound formulation of the desired concentration are populated with about 20 Lucilia cuprina larvae. After 2 days, the kill in % is determined 100% means that all the larvae have been killed; 0% means that none of the larvae have been killed.

adult Musca domestica = assay: Musca domestica test (MUSCDO); assay type: in vivo; settings: 100 ppm, after 2 days
Procedure: as §3, with “Musca domestica” for “Lucilia cuprina”, “(MUSCDO)” for “(LUCICU)”, “a sponge” for “horse meat”, “adult Musca domestica.” for “about 20 Lucilia cuprina larvae.”, “flies” for “the larvae”, “no flies” for “none of the larvae”

Ctenocephalides felis = assay: Ctenocephalides felis; oral (CTECFE); assay type: in vivo; settings: 100 ppm, oral in cattle blood, after 2 days
Procedure: Ctenocephalides felis; Oral (CTECFE)
To produce a suitable active compound formulation, 10 mg of active compound are mixed with 0.5 ml of dimethyl sulphoxide. A portion of the concentrate is diluted with citrated cattle blood, and the desired concentration is prepared.
About 20 unfed adult fleas (Ctenocephalides felis) are placed into a chamber which is closed at the top and bottom with gauze. A metal cylinder whose bottom end is closed with parafilm is placed onto the chamber. The cylinder contains the blood/active compound preparation, which can be imbibed by the fleas through the parafilm membrane.
After 2 days, the kill in % is determined 100% means that all fleas have been killed; 0% means that none of the fleas have been killed.

[5] = HPLC, acidic range pH 2.7, 43° C.
[6] = Phaedon cochleariae, 168 h, 100 g/ha
[7] = HPLC, acidic range pH 2.7, 43° C., read-out: log p

| Compound | efficacy ([1]; 100 g/ha) | efficacy [2] | log p [3, 5] | efficacy ([4]; 100 g/ha) | also measured |
| --- | --- | --- | --- | --- | --- |
| CCn1c(C(=O)NC(c2cccc(C(F)(F)F)c2)C(F)(F)F)cc2cc(C(=O)NC3CCC3)c(C)nc21 (stereo not drawn) [Compound 5] | 100% | 90% | 3.89 |  |  |
| CCn1c(C(=O)NC(c2cccc(C(F)(F)F)c2)C(F)(F)F)cc2cc(C(=O)NCc3ccccn3)c(C)nc21 (stereo not drawn) [Compound 7] |  | 90% | 2.99 |  |  |
| CCn1c(C(=O)NC(c2ccc(F)c(Cl)c2)C(F)(F)F)cc2cc(C(=O)NC3CC3)c(C)nc21 (stereo not drawn) [Compound 9] |  |  | 3.39 | 100% | efficacy ([1]; 20 g/ha): 100% |
| CCn1c(C(=O)NC(c2ccc(F)c(Cl)c2)C(F)(F)F)cc2cc(C(=O)NC(C)C)c(Cl)nc21 (stereo not drawn) [Compound 17] |  | 100% | 3.88 |  |  |
| C#CCn1c(C(=O)NC(c2cccc(C(F)(F)F)c2)C(F)(F)F)cc2cc(C(=O)NC3CC3)c(Cl)nc21 (stereo not drawn) [Compound 23] | 100% | 90% | 3.45 | 100% | efficacy (laying of fertile eggs) (Boophilus microplus): 100%; efficacy (kill) (Lucilia cuprina larvae): 100% |
| C#CCn1c(C(=O)NC(c2cccc(C(F)(F)F)c2)C(F)(F)F)cc2cc(C(=O)NC3CCC3)c(Cl)nc21 (stereo not drawn) [Compound 25] | 100% | 90% | 3.79 |  |  |
| CCn1c(C(=O)NC(c2cc(Cl)cc(Cl)c2)C(F)(F)F)cc2cc(C(=O)NC3CC3)c(Cl)nc21 (stereo not drawn) [Compound 28] | 100% |  |  | 100% | efficacy (laying of fertile eggs) (Boophilus microplus): 100%; efficacy (kill) (Lucilia cuprina larvae): 100%; efficacy (kill) (adult Musca domestica): 100%; efficacy (kill) (Ctenocephalides felis): 95% |
| CCn1c(C(=O)NC(c2cc(Cl)c(F)c(Cl)c2F)C(F)(F)F)cc2cc(C(=O)NC3(C#N)CC3)c(Cl)nc21 (stereo not drawn) [Compound 31] | 100% |  | 4.32 | 100% |  |
| CCn1c(C(=O)NC(c2cccc(C(F)(F)F)c2)C(F)(F)F)cc2cc(C(=O)NC3COC3)c(Cl)nc21 (stereo not drawn) [Compound 39] | 100% | 90% | 3.28 |  |  |
| CCn1c(C(=O)NC(c2ccc(F)c(Cl)c2)C(F)(F)F)cc2cc(C(=O)NCc3ccccn3)c(Cl)nc21 (stereo not drawn) [Compound 58] | 100% | 100% | 3.17 |  | efficacy (laying of fertile eggs) (Boophilus microplus): 100%; efficacy (kill) (Lucilia cuprina larvae): 100%; efficacy (kill) (Ctenocephalides felis): 100% |
| CCn1c(C(=O)NC(c2cc(Cl)c(F)c(Cl)c2)C(F)(F)F)cc2cc(C(=O)NCc3ccccn3)c(Cl)nc21 (stereo not drawn) [Compound 60] | 100% | 90% | 3.67 |  | efficacy (laying of fertile eggs) (Boophilus microplus): 100%; efficacy (kill) (Lucilia cuprina larvae): 100%; efficacy (kill) (Ctenocephalides felis): 95% |
| CCn1c(C(=O)NC(c2ccc(F)c(C(F)(F)F)c2)C(F)(F)F)cc2cc(C(=O)NC3(C(N)=S)CC3)c(Cl)nc21 (stereo not drawn) [Compound 66] | 100% | 100% | 3.64 | 100% |  |
| C#CCn1c(C(=O)NC(c2cc(Cl)c(F)c(Cl)c2)C(F)(F)F)cc2cc(C(=O)NC3CC3)c(Cl)nc21 (stereo not drawn) [Compound 68] | 100% |  | 3.85 | 100% |  |
| C#CCn1c(C(=O)NC(c2cc(Cl)c(F)c(Cl)c2F)C(F)(F)F)cc2cc(C(=O)NC3CC3)c(Cl)nc21 (stereo not drawn) [Compound 69] | 100% |  | 4.01 | 100% |  |
| C#CCn1c(C(=O)NC(c2ccc(F)c(C(F)(F)F)c2)C(F)(F)F)cc2cc(C(=O)NC3CC3)c(Cl)nc21 (stereo not drawn) [Compound 70] | 100% |  | 3.55 | 100% |  |
| CCn1c(C(=O)NC(c2cc(Cl)c(F)c(Cl)c2F)C(F)(F)F)cc2cc(C(=O)NC3CC3)c(C)nc21 (stereo not drawn) [Compound 71] | 100% |  | 4.21 | 100% |  |
| CCn1c(C(=O)NC(c2cc(Cl)c(F)c(Cl)c2)C(F)(F)F)cc2cc(C(=O)NC3CC3)c(C)nc21 (stereo not drawn) [Compound 72] | 100% |  | 4.00 | 100% |  |
| CCn1c(C(=O)NC(c2cccc(C(F)(F)F)c2)C(F)(F)F)cc2cc(C(=O)NC3CC3)c(C(F)(F)F)nc21 (stereo not drawn) [Compound 73] | 100% |  | 4.00 | 100% |  |
| CCn1c(C(=O)NC(c2cccc(C(F)(F)F)c2)C(F)(F)F)cc2cc(C(=O)NC3(C#N)CC3)c(C(F)(F)F)nc21 (stereo not drawn) [Compound 74] | 100% |  | 3.93 | 100% | efficacy ([1]; 500 g/ha): 100%; efficacy ([4]; 500 g/ha): 100% |
| CCn1c(C(=O)NC(c2ccc(F)c(C(F)(F)F)c2)C(F)(F)F)cc2cc(C(=O)NC3CC3)c(C)nc21 (stereo not drawn) [Compound 76] | 100% | 100% | 3.67 | 100% |  |
| CCn1c(C(=O)NC(c2cccc(C(F)(F)F)c2)C(F)(F)F)cc2cc(CNC(C)=O)c(C)nc21 (stereo not drawn) [Compound 94, 5-(Acetamidomethyl)-1-ethyl-6-methyl-N-{2,2,2-trifluoro-1-[3-(trifluoromethyl)phenyl]ethyl}-1H-pyrrolo[2,3-b]pyridine-2-carboxamide] |  |  |  |  | pest or weed control at 100 g/ha [1, 6]: 100%; chromatographic logP ([3]; pH 2.7, final compounds of the synthesis examples, read-out: log P (HPLC-MS)): 3.16 |
| CN(C(=O)c1cc2cc(C(=O)NC3CC3)c(Cl)nc2n1C)C(c1cccc(C(F)(F)F)c1)C(F)(F)F (stereo not drawn) [Compound 96] |  |  |  |  | pest or weed control at 100 g/ha [1, 6]: 100%; chromatographic logP [3, 7]: 3.63 |
| CN(C(=O)c1cc2cc(C(=O)NC3(C#N)CC3)c(Cl)nc2n1C)C(c1cccc(C(F)(F)F)c1)C(F)(F)F (stereo not drawn) [Compound 97] |  |  |  |  | pest or weed control at 100 g/ha [1, 6]: 100%; chromatographic logP [3, 7]: 3.59 |
| Cn1c(C(=O)NC(c2cccc(C(F)(F)F)c2)C(F)(F)F)cc2cc(C(=O)NC3CC3)c(Cl)cc21 (stereo not drawn) [reference compound] |  |  |  |  | percent efficacy (larval mortality) at 0.8 g/ha ([1]; Phaedon cochleariae, 168 h, PHAECO, 0.8 g of ai/ha, 7 d, read-out: % Efficacy dat): 0%; Emax at 4 g/ha ([2]; Tetranychus urticae, 144 h, TETRUR, 4 g of ai/ha, 6 d, read-out: % Efficacy dat): 0%; Emax at 4 g/ha ([4]; Spodoptera frugiperda, 168 h, SPODFR, 4 g of ai/ha, 7 d, read-out: % Efficacy dat): 17% |
| CCn1c(C(=O)NC(c2cccc(C(F)(F)F)c2)C(F)(F)F)cc2cc(C(=O)NCC#N)c(Cl)cc21 (stereo not drawn) [reference compound] |  |  |  |  | Emax at 100 g/ha ([2]; Tetranychus urticae, 144 h, TETRUR, 100 g of ai/ha, 6 d, read-out: % Efficacy dat): 0% |
